This test in a line: Binding affinity against PCP site of the NMDA Receptor using [3H]TCP radioligand.
In turn, `c1ccc2c(c1)C1CNC2C2CCCC12` (stereo not given) returned a Ki of 52 nM.

Compound `C[C@H]1NC2c3cccc(N)c3C1C1CCCC21` (stereo not given in full) registered a Ki of 8 nM. `C[C@@H]1NC2c3cccc(N)c3C1C1CCCC21` (stereo in doubt; 13) came in with a Ki of 1200 nM.

Compound `CN1CC2c3c(N)cccc3C1C1C=CCC21` (stereo not given) returned a Ki of 701 nM. Under `CN1CC2c3ccccc3C1C1CCCC21` (stereo not given) stands 1140 nM. Under `Nc1cccc2c1C1CNC2C2CCCC12` (stereo not given) stands 14 nM. `Oc1cccc(C2(N3CCCCC3)CCCCC2)c1` yielded a Ki of 38 nM.

`CN1CC2c3c(N)cccc3C1C1CCCC21` (stereo not given) showed a Ki of 226 nM. The figure for `C[C@]12N[C@H](Cc3ccccc31)c1ccccc12` [DIZOCILPINE] is 2.2 nM; for `C[C@@H]1NC2c3cccc(N)c3C1C1CCCC21` (stereo in doubt; 12a) it is 89 nM.

A word on the Ki: it is the dissociation constant of the complex between target and ligand, obtained from inhibition or displacement. High values mean lower affinity, low ones higher affinity.
